In patent US20020062088A1, “System and method for statistical analysis of QT interval as a function of changes in RR interval” (priority 2000, published 2002):
Read-outs that look alike come from different tables or passages of the source.

Tests used:
conscious mongrel dog = conditions: in vivo
Source text: A system for recording electrocardiogram data in accordance with the present invention is broadly shown in FIG. 6 as reference numeral 100. […] The vehicle or test compound may be administered in various ways, including but not limited to orally, intravenously, or subcutaneous.
Heart rate (RR interval) and Lead II ECG data are collected continuously on a beat-to-beat basis at a sampling rate of 1000 Hz to allow for millisecond (ms) resolution. Using the sampled data, the QT interval and preceding RR interval are measured on individual cardiac cycles using commercially available data acquisition and analysis software. The software package used in support of the data presented here was from Gould Inc. (Po-Ne-Mah) subsidiary. This software permits visual validation of the determination of end points used in the calculation of the ECG time intervals. The collection of data is not limited to any particular method. For example, ECG time intervals can be measured using a ECG strip chart recorder. Thus, both manual and electrical data collection is possible with the present invention.
The various treatments with vehicle or compounds are studied in a randomized fashion.
Approximately 250 to 300 consecutive cardiac cycles are analyzed for a pre-dose period and during steady-state compound exposure. This encompasses between three to five minutes of continuous data for each data collection period. […] An asymptotic decaying exponential growth curve fit is used to describe the relationship between QT and RR interval:
QT=A−B*exp(−C*RR/1000) (1)
Equation (1) is used to fit the QT measurements to the preceding RR interval for each separate data set of consecutive cardiac cycles. The data from each sample period for each vehicle or compound dose is fit to the equation using a least squares nonlinear regression method such as, but not limited to, Quasi Gauss-Newton.
The upper 95% confidence limit for the difference of the curves is determined for each of the dose-to-pre-dose comparisons. If the dose curve crosses the 95% limit, the QT and RR values and the direction of crossing is noted.
The analysis of the compound versus vehicle effect on QT is also accomplished by comparisons of the number of prolonged points exceeding the 95% confidence interval of their respective pre-dose curves. The pre-dose curve value represents the least squares estimate of QT at that value of RR. The 95% limits are then used to compare the overall effect of the treatment (compound or vehicle) to that of the pre-dose response. The confidence limits of the two curves are combined (pooled) to determine the standard error of the difference between the pre-dose and post-dose curves. […] The extent of the confidence and prediction limits depends on the overall variability of the data and the values of the coefficients.
The number of pre-dose data that exceed the upper 95% prediction limit (referred to herein as “outliers”) is compared to the number of post-dose data that exceed the limit for each of the time periods. A repeated measures test for significant difference between pre-dose and post-dose outliers is conducted to evaluate an effect. In the case of small but consistent effects, the repeated measures test detects significant differences better than individual tests. […] To minimize the chance of false negatives, β, conventionally known as “Type II errors,” no multiple comparison adjustments are made for the individual tests.
Once the outliers are identified, they are compared to the pre-dose curve to estimate the magnitude of prolongation, ΔQT, above the QT-RR curve fit to the pre-dose data. The magnitude of prolongation is referenced to the curve rather than the upper 95% confidence bound because the curve is the best estimate of the QT-RR functional relationship, regardless of the number of data points.

humans = conditions: cited from earlier work

With `COc1cc(N)c(Cl)cc1C(=O)NC1CCN(CCCOc2ccc(F)cc2)CC1OC` (stereo not shown) [cisapride] the “Treatment crosses pre-dose curve” value (conscious mongrel dog) was “Yes:RR =”, the “number and magnitude of the outliers compared to the pre-dose and vehicle response” value (conscious mongrel dog) was “significant increase” and the “post-dose curve versus pre-dose curve” value (conscious mongrel dog) was “not significantly greater than the pre-dose curve”. For the same molecule, the “#outliers/total (QT exceeding 95% confidence bounds of pre-dose curve)” value (conscious mongrel dog; mongrel) was 130/324, the “RR at crossing point of post-dose and pre-dose curves” value (conscious mongrel dog; mongrel) was 1094 ms and the “mean ΔQT (of QT exceeding 95% confidence bounds of pre-dose curve)” value (conscious mongrel dog; mongrel) was 12. For the same molecule, the “ΔQT range (of QT exceeding 95% confidence bounds of pre-dose curve)” value (conscious mongrel dog; mongrel) was 5 - 47, the “QTRR1000 (least squares estimate of QT at RR 1000 ms, mean ± SEM from curve fit)” value (conscious mongrel dog; mongrel, iv) was 240 ± 18 and the “QTc, clinically” value (humans; clinical) was “clear, dose-dependent increase in QTC”. The “QT prolongation and sudden death in humans” value (humans) was “caused QT prolongation and sudden death”.

In the case of `CC(C)NCC(O)c1ccc(NS(C)(=O)=O)cc1` (stereo not shown) [sotalol], the “QT prolongation and sudden death in humans” value (humans) is listed as “caused QT prolongation and sudden death”.

In the case of `CC(C)(C)c1ccc(C(O)CCCN2CCC(C(O)(c3ccccc3)c3ccccc3)CC2)cc1` (stereo not shown) [terfenadine], the “number and magnitude of the outliers compared to the pre-dose and vehicle response” value (conscious mongrel dog) is given as “significant increase” and the “QTc, clinically” value (humans; human, in vivo) is given as “clear, dose-dependent increase in QTC”.
